# What was measured:
# Type in all cases: in vivo, swine
# postpartum sows [1] = experiment: Timed deslorelin injection 96 h post-weaning and single timed insemination without estrus detection (Example 3)
# Description: (§1) Approximately 170 postpartum sows were randomly divided into two equal groups comprised of controls and treated. Following weaning, the controls were detected for estrus and bred following the normal standard operating procedures for the farms on which they resided. The treated sows received a 50 mcg dose of deslorelin in SAIB at 96 hours post-weaning and were bred with a single insemination 28+/−2 hours later with no regard to estrus detection. The sows were examined for pregnancy by ultrasound at 21 days and slaughtered around 28 days post breeding. The entire reproductive tract was removed and corpora lutea and embryos were counted.
# LH = LH response (RIA) in ovariectomized estrogen primed gilt model, dose response study; details: single injection of 50 mcg in SAIB
# Description: A dose response study was performed using deslorelin in SAIB in an ovariectomized estrogen primed gilt model (Barb, et al. (1999) Proceed. Int'l. Symp. Control. Rel. Bioact. Mater., 26).
# postpartum sows [2] = experiment: Litter size after deslorelin treatment in sows, three farm sites (Example 4); details: Tables 3-5, three sites, regardless of estrus detection
# Source text: Postpartum sows were randomly distributed into three different groups comprised of Controls, Treatment 1, and Treatment 2, with the exception of Site 3, which was divided into two groups, Control and Treatment 2. Control sows were detected for estrus following weaning, and bred following the normal standard operating procedures for the farms on which they resided. Treatment 1 sows were detected for estrus following weaning, and received a 50 mcg dose of deslorelin in the morning when standing and were bred by AI 4 hours later and again at 24+/−2 hours later. Treatment 2 sows received a 50 mcg dose of deslorelin in SAIB at 96 or 120 hours post-weaning and were bred with a single insemination 28+/−2 hours later with, no regard to estrus detection.
# postpartum sows [3] = experiment: Pregnancy rate after deslorelin treatment in sows, summary of Tables 2-5; details: Table 6 summary
# Description: as §1, with “counted. Postpartum sows were randomly distributed into three different groups comprised of Controls, Treatment 1, and Treatment 2, with the exception of Site 3, which was divided into two groups, Control and Treatment 2. Control sows were detected for estrus following weaning, and bred following the normal standard operating procedures for the farms on which they resided. Treatment 1 sows were detected for estrus following weaning, and received a 50 mcg dose of deslorelin in the morning when standing and were bred by AI 4 hours later and again at 24+/−2 hours later. Treatment 2 sows received a 50 mcg dose of deslorelin in SAIB at 96 or 120 hours post-weaning and were bred with a single insemination 28+/−2 hours later with, no regard to estrus detection.” for “counted.”
# mature postpartum sows = experiment: Deslorelin at first detected estrus in postpartum sows, AI breeding (Example 2)
# Description: Sows were assigned randomly in blocks of two to either control or to be injected intravulvar with 50 mcg of deslorelin in SAIB at the time of estrus detection for sows first detected in estrus in the a.m. and 12 hours later for those first detected in estrus in the p.m. Treated animals were bred AI upon detected estrus and again 24 hours later if still in estrus. Controls received a saline injection on first detected estrus behavior estrus detection and were bred according to the farm's normal procedures.
structure (smiles),measurement,setting,value
"CCNC(=O)[C@@H]1CCCN1C(=O)[C@H](CCCN=C(N)N)NC(=O)[C@H](CC(C)C)NC(=O)[C@@H](Cc1c[nH]c2ccccc12)NC(=O)[C@H](Cc1ccc(O)cc1)NC(=O)[C@H](CO)NC(=O)[C@H](Cc1c[nH]c2ccccc12)NC(=O)[C@H](Cc1cnc[nH]1)NC(=O)[C@@H]1CCC(=O)N1 [Deslorelin, deslorelin]",Embryo Survival,"postpartum sows [1]; 50 mcg in SAIB 96 h post-weaning, single insemination 28+/-2 h later",64%
same,Sows Pregnant,"postpartum sows [1]; 50 mcg in SAIB 96 h post-weaning, single insemination 28+/-2 h later, 84 sows in group",60
same,Pregnancy Rate,"postpartum sows [1]; 50 mcg in SAIB 96 h post-weaning, single insemination 28+/-2 h later, no estrus detection",71%
same,pregnancy rates (in words),"postpartum sows [1]; single timed injection in SAIB post-weaning, single timed insemination, no estrus detection",normal pregnancy rates were attained
same,time at which LH returned to base level,LH,≤ 18 h
same,LH peak relative to normal value,LH; normal value from Hansel et al. 1973,about twice normal value
same,litter sizes (in words),postpartum sows [2],normal litter sizes
same,pregnancy rates (in words),postpartum sows [3],normal pregnancy rates were obtained
same,Pregnancy Rate,"mature postpartum sows; 50 μg deslorelin acetate (1 ml) intravulvar at first estrus detection, AI, again next day if in estrus, n = 75",91%
same,"pregnancy rates, Control versus Treated (in words)",mature postpartum sows; 50 mcg in SAIB intravulvar at estrus detection,no significant difference

# Reference: patent US8937044B2, “Process for the synchronization of ovulation for timed breeding without heat detection” (priority 2003, dated 2015)
